Tests used:
[1] = tested on: human monocytes; test: Immune cell polarization (qPCR NOS2/ARG1), human monocytes; format: cell-based; details: activated human monocytes, qPCR marker
Procedure: (§1) Immune cell polarization was evaluated in vitro using markers for M1/TH-1 (NOS2) and M2/TH-2 (ARG1) phenotype with human monocytes and mouse monocytes (BMDM bone marrow derived monocytes).
Human blood was collected under national ethical approval with full informed written patient consent. Freshly isolated human blood was collected in EDTA vacutainer tubes, diluted 1:1 in PBS and gently layered onto histopaque (Merck). Tubes were immediately centrifuged at 100×g for 30 minutes and the whitish buffy layer formed at the histopaque interface aspirated and washed (centrifuged 100×g, 10 minutes) twice with sterile PBS. Untouched classical (CD14++, CD16−) monocytes were isolated from the washed buffy layer cells using the Miltenyi Classical Monocyte Isolation Kit, LS columns and a MidiMACs separator (Miltenyi). Isolated cells were seeded into tissue culture plates and stimulated to differentiate using PMA.
(§2) An experiment was conducted to evaluate the anti-inflammatory effects of E4 or vehicle (negative control). qPCR methodology was used to assess the effects of E2 and E4 on immune cell polarization using well validated marker of pro-inflammatory (NOS2 for MI/TH-1 phenotype) and anti-inflammatory (ARG1 for ME/TH-2 phenotype) activity.

[2] = tested on: mouse BMDM (bone marrow derived monocytes); test: Immune cell polarization (qPCR NOS2/ARG1), mouse BMDM; format: cell-based; details: activated mouse bone marrow derived monocytes, qPCR marker
Procedure: as §1, §2

[3] = tested on: mouse lymphoma cell line L5178Y TK^+/−; test: Generation of reactive oxygen species (ROS); format: cell-based; details: up to 3000 μM, 3 h exposure, vs vehicle control
Procedure: The objective of the study was to investigate the generation of reactive oxygen species (ROS) induced by the test item, estetrol (E4), in a mouse lymphoma cell line L5178Y TK^+/−.
L5178Y TK^+/− cells in logarithmic phase of growth were plated in black 96 well cell culture plates at 1×10^4 cells in 90 μL of cell culture media. Controls and test item in triplicate were applied to the cells as a 10× concentrate in 10 μL of a 10% ethanol solution in PBS (final concentration of ethanol on plate was 1%). Cells were incubated for 3 hours at 37° C., 5% CO2, and the generation of ROS was evaluated by fluorescence with a ROS reagent: the ROS reagent was freshly prepared by dissolving one ampoule of reagent (50 μg) in 70 μL DMSO and further diluting this with 2.1 mL of pre-warmed PBS. 10 μL of ROS reagent was added to each well and the plate were shaken for 30 seconds in the dark. The plates were incubated approximately at 37° C., 5% CO2 for 1 h 30 min and fluorescence was read on a plate scanner with excitation at 492 nm and emission at 520 nm.

[4] = tested on: human hair follicles (HF); test: Hair follicle organ culture: microscopic hair cycle staging; format: cell-based; details: vs vehicle
Procedure: (§3) 12-44 full-length frontotemporal hair follicles (HF) were obtained from four human female donors >50 years old. Donors were caucasian female subjects […], respectively (Donor 1: 12 temporal anagen HFs; Donor 2: 29; Donor 3: 44; Donor 4: 32). After microdissection from skin as described (Edelkamp et al., Methods Mol Biol, 2020, 2154:105-119; and Langan et al., Exp Dermatol, 2015, December; 24(12):903-1), HFs were placed in adequate culture medium and allowed a 24 h rest period to allow them to recover from the trauma of microdissection. Test substance (either vehicle (0.3% EtOH) or E4 at concentrations of 30 μM, 3 μM or 300 nM) was added to the medium at the end of the 24 h. Total culturing time was 5-7 days depending on the studied parameters and the experimental question. The experimental design for the hair follicle organ culture experiment is depicted in FIG. 12. Longer term culture experiments may be used to analyze the capacity to delay the onset of catagen.
Hair cycle staging and calculation of hair cycle score is indicative of hair cycle progression and anagen-catagen transition (Langan et al., Exp Dermatol, 2015). Hair cycle staging and hair cycle score was performed at the end of the culture. The hair cycle stage of each HF was determined according to several established macroscopic and microscopic parameters (Langan et al Exp Dermatol, 2015). For macroscopic hair cycle stage, bright field images of the living HFs were taken with a digital microscope (Keyence VHX 900). Microscopic hair cycle staging was determined using Ki 67/TUNEL immunohistology and Masson Fontana histochemistry. Hair cycle staging was analyzed by calculating the percentage of HFs in each hair cycle stage. Hair cycle score was determined by giving an arbitrary score to each hair cycle stage as following: anagen: 100, early catagen: 200, mid catagen: 300, late catagen: 400, dystrophic 500, with a higher score being indicative of a higher number of HFs in catagen.

[5] = tested on: hair matrix keratinocytes; test: Hair follicle organ culture: hair matrix keratinocytes proliferation and apoptosis (Ki-67/TUNEL); format: cell-based, human; details: vs vehicle
Procedure: as §3
Germinative hair matrix keratinocytes proliferate mostly during anagen. […] Apoptosis of hair matrix keratinocytes is used as an additional indicator of anagen/catagen transition.
Proliferation was assessed by quantification of the percentage of hair matrix keratinocytes in a clearly specified area (germinative hair matrix keratinocytes, below the Auber's line) that were positive for the proliferation marker Ki67 (or another proliferation marker such as BrdU or EdU), whereas apoptosis was assessed using TUNEL (TdT-mediated dUTP-biotin nick-end labelling) immunofluorescence (or another apoptosis marker such as activated caspase-3) in the same keratinocyte population (below the Auber's line) and in the precortical hair matrix keratincoytes (above the Auber's line) (Langan et al., Exp Dermatol 2015) (FIG. 13).

[6] = tested on: K15 positive cells; test: Hair follicle organ culture: K15 expression, stem cells; format: cell-based, human; details: vs vehicle
Procedure: as §3
K15 is a type I cytokeratin expressed in HF bulge stem cells and their progeny (Purba et al., BioEssays, 2014). It is expressed in the bulge, infra-bulge and suprabulbar ORS. Bulge stem cells are identified using K15 expression, cellular morphology and anatomical localization (below the sebaceous glands, at the area where the arrector pili muscle attaches to the HF). K15 expression was analyzed in the bulge basal layer and in the suprabulbar ORS, and proliferation of K15 positive cells was evaluated in combination with Ki67 immunofluorescence staining.

Compound: C[C@]12CC[C@@H]3c4ccc(O)cc4CC[C@H]3[C@@H]1[C@@H](O)[C@@H](O)[C@@H]2O [E4, 1,3,5 (10)-estratrien-3,15alpha,16alpha,17beta-tetrol]
- immune cell polarization, human monocytes [1]: switch from subtype M1 (pro-inflammatory) to subtype M2 (healing)
- immune cell polarization, mouse BMDM [2]: switch from subtype M1 (pro-inflammatory) to subtype M2 (healing)
- levels of ROS [3]: dose-dependent decrease
- prolonged anagen (microscopic hair cycle staging) ([4]; 300 nM): tendentially
- prolonged anagen (microscopic hair cycle staging) ([4]; 3 μM): significantly
- prolonged anagen (microscopic hair cycle staging) ([4]; 30 μM): tendentially
- hair matrix keratinocytes apoptosis (TUNEL) ([5]; 300 nM, 3 μM, 30 μM): without affecting
- increased hair matrix keratinocytes proliferation (Ki-67) ([5]; 300 nM): tendentially
- increased hair matrix keratinocytes proliferation (Ki-67) ([5]; 3 μM): significantly
- increased hair matrix keratinocytes proliferation (Ki-67) ([5]; 30 μM): tendentially
- percentage of K15 positive cells in the suprabulbar ORS ([6]; 300 nM, 3 μM, 30 μM): did not have any effect
- decreased proliferation of K15 positive cells in the suprabulbar ORS (Ki-67) ([6]; 300 nM): significantly
- increased proliferation of K15 positive cells in the bulge basal layer (Ki-67) ([6]; 300 nM): tendentially
- decreased proliferation of K15 positive cells in the suprabulbar ORS (Ki-67) ([6]; 3 μM): tendentially
- increased proliferation of K15 positive cells in the bulge basal layer (Ki-67) ([6]; 3 μM): tendentially
- percentage of K15 positive cells in the bulge basal layer ([6]; 3 μM): significantly decreased
- increased proliferation of K15 positive cells in the bulge basal layer (Ki-67) ([6]; 30 μM): significantly

— US20250099485A1, “COMPOSITIONS FOR PROMOTING HAIR GROWTH” (ESTETRA SRL, priority 2021, published 2025)
